In brackets after ≈: the same amount, converted by molar mass.
Columns and labels:
[1] = test system: Mycobacterium tuberculosis; experiment: Antimycobacterial activity against Mycobacterium tuberculosis H37RV assessed as bacterial growth inhibition; format: functional
[2] = test system: Mycobacterium tuberculosis; experiment: Antimycobacterial activity against Mycobacterium tuberculosis H37Rv assessed as bacterial growth inhibition by microplate Alamar blue assay; format: functional
[3] = target: T1, Thymidylate kinase (Mycobacterium tuberculosis, UniProt P9WKE1); experiment: Inhibition of Mycobacterium tuberculosis TMPK assessed as inhibition constant
T1 sequence (P9WKE1 whole entry): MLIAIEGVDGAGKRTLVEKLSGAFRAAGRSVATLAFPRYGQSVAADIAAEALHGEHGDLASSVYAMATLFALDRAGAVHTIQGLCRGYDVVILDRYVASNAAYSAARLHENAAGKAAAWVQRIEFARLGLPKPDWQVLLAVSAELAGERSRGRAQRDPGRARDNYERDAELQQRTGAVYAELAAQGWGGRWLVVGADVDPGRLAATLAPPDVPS

[4] = target: Adenosine kinase (Homo sapiens, UniProt P55263); experiment: Inhibition of human ADK
Sequence of Adenosine kinase (Homo sapiens, UniProt P55263) (P55263 whole entry): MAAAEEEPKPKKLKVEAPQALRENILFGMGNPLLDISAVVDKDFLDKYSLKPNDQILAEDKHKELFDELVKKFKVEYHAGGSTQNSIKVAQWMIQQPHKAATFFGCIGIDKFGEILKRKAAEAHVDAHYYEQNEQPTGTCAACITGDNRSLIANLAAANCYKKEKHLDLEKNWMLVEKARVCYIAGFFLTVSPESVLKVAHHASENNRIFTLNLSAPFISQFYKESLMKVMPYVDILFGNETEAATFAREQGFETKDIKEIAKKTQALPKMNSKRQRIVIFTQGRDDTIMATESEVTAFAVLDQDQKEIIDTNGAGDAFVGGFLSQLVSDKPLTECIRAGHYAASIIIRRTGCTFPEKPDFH

[5] = test system: Mycobacterium tuberculosis; experiment: Antimycobacterial activity against Mycobacterium tuberculosis My331/88 assessed as bacterial growth inhibition measured after 14 to 21 day; format: functional; settings: time 14-21 day
[6] = test system: Mycobacterium tuberculosis; experiment: Antimycobacterial activity against Mycobacterium tuberculosis assessed as bacterial growth inhibition measured after 14 to 21 day; format: functional; settings: time 14-21 day
[7] = target: Adenosine kinase (Mycobacterium tuberculosis (strain CDC 1551 / Oshkosh), UniProt P9WID4); experiment: Inhibition of Mycobacterium tuberculosis ADK
Sequence of Adenosine kinase (Mycobacterium tuberculosis (strain CDC 1551 / Oshkosh), UniProt P9WID4) (P9WID4 whole entry): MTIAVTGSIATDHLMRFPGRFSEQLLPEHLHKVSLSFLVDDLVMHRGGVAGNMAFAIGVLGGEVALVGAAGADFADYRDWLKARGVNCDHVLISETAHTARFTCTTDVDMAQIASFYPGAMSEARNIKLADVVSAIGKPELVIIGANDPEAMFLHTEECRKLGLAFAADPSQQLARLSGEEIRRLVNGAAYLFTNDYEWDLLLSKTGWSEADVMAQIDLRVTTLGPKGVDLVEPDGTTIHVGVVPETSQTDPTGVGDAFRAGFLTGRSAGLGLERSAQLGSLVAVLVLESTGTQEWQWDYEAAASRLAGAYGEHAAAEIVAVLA

[8] = Selectivity index, ratio of Ki for human TMPK to Ki for Mycobacterium tuberculosis TMPK
[9] = target: T2, Thymidylate kinase (Homo sapiens, UniProt P23919); experiment: Inhibition of human TMPK assessed as inhibition constant
T2 sequence (P23919 whole entry): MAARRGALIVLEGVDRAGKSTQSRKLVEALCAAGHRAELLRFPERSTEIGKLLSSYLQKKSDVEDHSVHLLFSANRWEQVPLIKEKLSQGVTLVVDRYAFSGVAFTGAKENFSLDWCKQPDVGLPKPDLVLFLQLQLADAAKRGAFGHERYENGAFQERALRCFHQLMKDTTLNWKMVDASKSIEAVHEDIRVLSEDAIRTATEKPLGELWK

[10] = test system: Mycobacterium tuberculosis; experiment: Antimycobacterial activity against Mycobacterium tuberculosis H37Rv infected in po dosed C57BL/6 mouse assessed as bacterial growth inhibition measured after 8 days; format: functional; settings: 192 h, time 8 day
[11] = test system: HepG2; experiment: Anticancer activity against human HepG2 cells assessed as cell growth inhibition; format: functional, cell-based
[12] = test system: Mycobacterium tuberculosis; experiment: Antimycobacterial activity against Mycobacterium tuberculosis infected in Macrophage cell (unknown origin) assessed as bacterial growth inhibition; format: functional
[13] = Selectivity index, ratio of IC50 for anticancer activity against human HepG2 cells to MIC for antimycobacterial activity against Mycobacterium tuberculosis; format: toxicity, cell-based; settings: read-out: Selectivity Index

O=c1cc(CC2CCCCC2)[nH]c2c(-c3ccc(Cl)cc3)cnn12
MIC [1]: 0.78 µM

CCCSc1nc(Cl)c(C#N)c(-c2cccc(F)c2)n1
MIC [2]: 0.78 µg/mL

CCCSc1nc(Cl)c(C#N)c(-c2cccs2)n1
MIC [2]: 0.78 µg/mL

Cc1cn([C@H]2C[C@H](NC(=O)N[C@H]3C[C@H](c4[nH]c(=O)[nH]c(=O)c4C)O[C@@H]3O)[C@@H](CO)O2)c(=O)[nH]c1=O
Ki [3]: 37 µM

COc1ccc(Cn2cnc3c(-c4ccco4)nc(Cl)nc32)cc1
MIC [1]: 0.78 µg/mL

OC[C@H]1O[C@@H](n2ccc3c(-c4cccc5c4oc4ccccc45)nc(F)nc32)[C@H](O)[C@@H]1O
IC50 [4]: > 20 µM | MIC [5]: 32 µM (≈ 13.9 µg/mL) | MIC [6]: 32 µM (≈ 13.9 µg/mL) | IC50 [7]: 0.18 µM

Cc1cn([C@H]2C[C@H](O)[C@@H](CNC(=S)Nc3ccc(Cl)c(C(F)(F)F)c3)O2)c(=O)[nH]c1=O
Ratio Ki [8]: 600 | Ki [3]: 0.6 µM | Ki [9]: 362 µM

O=c1cc(-c2ccc(Cl)cc2)[nH]c2c(-c3ccc(Cl)cc3)cnn12
MIC [1]: 12.5 µM

COc1ccc(CNc2nc(Cl)nc(-c3ccco3)c2NC=O)cc1
IC90 [1]: 0.29 µg/mL (≈ 0.808 µM)

COc1ccc(-c2cc(=O)n3nc(C)c(-c4ccc(Cl)cc4)c3[nH]2)cc1
MIC [1]: 3.12 µM

O=C(C1CCN(c2cc(N3CCOCC3)ncn2)CC1)N1CCC(Oc2ccc(F)cc2)CC1
ED99 [10]: 30 mg/kg

N#Cc1c(Cl)nc(SCc2ccc(Cl)cc2)nc1-c1cccs1
MIC [2]: 0.78 µg/mL

O=C(C1CCN(c2cc(N3CCOCC3)ncn2)CC1)N1CCC(Cc2ccc(F)cc2)CC1
ED99 [10]: 29 mg/kg

COc1ccc(CNc2nc(C)nc(-c3ccco3)c2NC=O)cc1
IC90 [1]: 0.33 µg/mL (≈ 0.975 µM)

OC[C@H]1O[C@@H](n2ccc3c(-c4cc5ccccc5o4)nc(F)nc32)[C@H](O)[C@@H]1O
IC50 [4]: > 10 µM | MIC [5]: 62.5 µM (≈ 24.1 µg/mL) | IC50 [7]: 1.2 µM

Cc1nn2c(=O)cc(-c3ccccc3)[nH]c2c1-c1ccccc1
MIC [1]: 3.12 µM

CC(=O)NC[C@H]1CN(c2ccc(N3CCOCC3)c(F)c2)C(=O)O1 [LINEZOLID]
ED99 [10]: 28 mg/kg

Cc1cn([C@@H]2O[C@H](CO)[C@H]3CNC(=S)O[C@H]32)c(=O)[nH]c1=O
Ratio Ki [8]: 200

NCC[C@H](O)C(=O)N[C@@H]1C[C@H](N)[C@@H](O[C@H]2O[C@H](CN)[C@@H](O)[C@H](O)[C@H]2O)[C@H](O)[C@H]1O[C@H]1O[C@H](CO)[C@@H](O)[C@H](N)[C@H]1O [AMIKACIN]
MIC [1]: 2 µg/mL

COc1ccc(CNc2nc(F)nc(-c3ccco3)c2NC=O)cc1
IC90 [1]: < 0.2 µg/mL

Cc1nn2c(=O)cc(-c3ccc(F)c(F)c3)[nH]c2c1-c1ccccc1
IC50 [11]: > 100 µM | MIC [12]: 2.73 µM (≈ 0.921 µg/mL) | MIC [1]: 1.56 µM | selectivity ratio [13]: > 36

COc1c(N2C[C@@H]3CCCN[C@@H]3C2)c(F)cc2c(=O)c(C(=O)O)cn(C3CC3)c12 [MOXIFLOXACIN]
ED99 [10]: 27.7 mg/kg

CCCSc1nc(Cl)c(C#N)c(-c2ccco2)n1
MIC [2]: 0.78 µg/mL

O=c1nc(N2CCN(CC3CCCCC3)CC2)sc2c([N+](=O)[O-])cc(C(F)(F)F)cc12 [MACOZINONE]
MIC [1]: ≤ 0.00019 µg/mL

Reference: ChEMBL document CHEMBL5360529, “Pyrimidine derivatives with antitubercular activity” (Eur J Med Chem, 2023)
